{"source": "paper PMC11404609", "about": "“Gut microbiota-mediated C-sulfonate metabolism impairs the bioavailability and anti-cholestatic efficacy of andrographolide” (Gut Microbes, 2024)", "key": {"[1]": {"assay": "Tissue distribution of AP and APM in rats", "assay_type": "in vivo", "conditions": "ABX-treated rats vs Control, AP 120 mg/kg oral", "method": "Control and ABX rats were orally administered a single dose of AP at 120 mg/kg. Control, ABX and germ-free C57BL/6J mice were orally administered a single dose of AP at 100 mg/kg. After 90 min of AP administration, all animals were euthanized, and blood and tissue samples were collected for subsequent analysis.\nAn ACQUITY^TM UPLC-MS/MS system equipped with an ACQUITY^TM UPLC BEH C18 Column (50 × 2.1 mm I.D., 1.7 μm, Waters, Milford, MA, USA) was utilized for the quantification of AP and APM as previously described.[47] Briefly, the detection samples (50 μL) were mixed with 50 μL of IS (50 ng/mL). AP and APM were extracted by 400 μL cold methanol. Supernatants were dried under nitrogen stream. Then, the residue was dissolved with 50% methanol in water, centrifuged for 30 min at 13,000 rpm, and 10 µL of the supernatant was subjected to UPLC-MS/MS analysis. The mobile phases consisted of eluent A (water) and eluent B (methanol) with a gradient elution as follows: 0–0.8 min, 10% B; 0.8–1.2 min, 10–90% B; 1.2–5.0 min, 90% B; 5.0–5.5 min, 90–10% B; 5.5–7.0 min, 10% B. The flow rate was 0.3 mL/min and the injection volume of all samples was 10 μL. The quantification of AP, APM and IS was performed by UPLC-MS/MS using an MRM method with the transitions of m/z 349.1→m/z 287.2 for AP, m/z 413.2→m/z 287.2 for APM, m/z 269→m/z 133 for IS.\nAP was administered intravenously and orally to detect the production of the C-sulfonate metabolite APM. In tissue distribution experiment, rats were given AP intravenously (24 mg/kg) or orally (120 mg/kg), while mice received AP intravenously (20 mg/kg) or orally (100 mg/kg). After a 90-minute interval, the animals were sacrificed, and their liver, kidneys, small intestine, and colon were collected for analysis. In pharmacokinetic studies, rats were administered 24 mg/kg of AP intravenously or 120 mg/kg of AP by oral gavage. Blood samples were collected at predetermined time intervals (0, 5, 10, 20, 30, 40, 60, 90, 120, 180, 240, 360, and 480 min), as described, to detect the content of AP and APM by UPLC-MS/MS."}, "FXR": {"test_system": "FXR", "assay": "FXR expression in liver (RNA sequencing, qPCR, Western blot)", "assay_type": "in vivo, mice", "method": "RNA in liver tissue was isolated from mice treated with ANIT and ANIT+AP (200 mg/kg, i.p.) and purified by TRIzol (Invitrogen, CA). The isolated RNA was quantified using Qubit 2.0 (Thermo Fisher Scientific, USA) following the manufacturer’s protocol. Libraries were prepared using the NEBNext® UltraTM RNA Library Prep Kit for Illumina® (NEB, USA) and sequenced on a Novaseq 6000 (Illumina, USA) at Novogene’s deep sequencing facility. Mapped reads from each sample were assembled using StringTie (v1.3.3b) in a reference-based approach, and featureCounts was used to quantify mapped reads. Differential expression analysis of two conditions/groups was performed using the DESeq2 R package (1.20.0).\nTotal RNA from frozen livers of Vehicle, AP (200 mg/kg, i.p.), ANIT (50 mg/kg), and ANIT+AP (200 mg/kg, i.p.) groups was extracted using the Animal Total RNA Isolation Kit (FOREGENE, China). cDNA was synthesized using a Color Reverse Transcription Kit (EZBioscience, Roseville, CA, USA). qPCR was performed using SYBR green/Rox qPCR master mix (EZBioscience, Roseville, CA, USA), according to the manufacturer’s instruction. The expression of target genes was normalized to β-actin, and fold changes were calculated using 2^–ΔΔCT method. For bacterial identification, genomic DNA of fecal flora was isolated using the TIANamp Stool DNA Kit (TIANGEN, Beijing, China) and qPCR was performed. […]"}, "gut microbiota": {"test_system": "gut microbiota", "assay": "Shotgun metagenomic sequencing of cecum samples after AP treatment", "assay_type": "in vivo", "conditions": "mice cecum, AP 400 mg/kg, oral, 14 d", "method": "Shotgun metagenomic sequencing was performed using cecum samples from mice after AP treatment (400 mg/kg, oral, 14 d). DNA was extracted by a PF Mag-Bind DNA Kit (Omega Bio-tek, USA) and qualified by 1% Agarose gel electrophoresis. Extracted DNA was fragmented by Covaris M220 (Gene Company Limited, China) and screened at approximately 400 bp fragments for paired-end library construction. NEXTFLEX® Rapid DNA-Seq (Bioo Scientific, USA) was used to build paired-end library construction. The Illumina NovaSeq 6000 (Illumina, USA) sequencing platform was used for metagenomic sequencing. Fastp was used to perform quality cropping on the adapter sequences of the 3’ and 5’ ends of reads, preserving high-quality paired-end reads and single-end reads. BWA (version 0.7.17) was used to construct the reads with the host DNA sequence and remove contaminated reads with high alignment similarity. MEGAHIT (version 1.1.2) was used to splice and assemble the optimized sequence. SOAP aligner (version soap2.21release) was used to compare the high-quality reads of each sample with the non-redundant gene set (95% identity) and calculate the abundance information of genes in the corresponding samples. DIAMOND (version 2.0.11) was used to annotate species taxonomy, and KEGG function. Data was deposited into the NCBI Sequence Read Archive (SRA) database."}}}
{"compound": "C=C1CC[C@@H]2[C@](C)(CO)[C@H](O)CC[C@@]2(C)[C@@H]1C/C=C1/C(=O)OC[C@H]1O", "note": "[AP, Andrographolide]", "values": [{"measurement": "levels of AP in plasma and tissues", "setting": "[1]", "result": "elevated levels"}, {"measurement": "expression of Fxr (Nr1h4) by RNA-sequencing", "setting": "FXR; ANIT+AP (200 mg/kg, i.p.) vs ANIT", "result": "significant upregulation"}, {"measurement": "FXR expression by qPCR and Western blot", "setting": "FXR; after AP treatment (200 mg/kg, i.p.)", "result": "upregulation of FXR expression"}, {"measurement": "expression of APS reductase / growth of APS reductase-producing gut microbiota", "setting": "gut microbiota", "result": "did not induce significant alterations"}, {"measurement": "expression of Enterococcus, Lactobacillus, and Escherichia bacteria", "setting": "gut microbiota", "result": "did not suppress"}]}
